Measurements reported in US20060205753A1, “Use of methylnaltrexone and related compounds to treat post-operative gastrointestinal dysfunction” (priority 2005, published 2006).
Entries after “also recorded” stand apart in the source; their conditions may differ. Where two headings read alike, the source gives them in different places.

Key:
[1] = tested on: human patients, abdominal surgery; details: 6 mg and 12 mg oral doses, started at least two hours prior to abdominal surgery; cited from earlier work
mu opioid receptor = mu opioid receptor (Homo sapiens, UniProt P35372); details: Alvimopan compared with methylnaltrexone; as characterized by Adolor Corporation; cited from earlier work
mu opioid receptor, sequence (P35372 whole entry, species assumed): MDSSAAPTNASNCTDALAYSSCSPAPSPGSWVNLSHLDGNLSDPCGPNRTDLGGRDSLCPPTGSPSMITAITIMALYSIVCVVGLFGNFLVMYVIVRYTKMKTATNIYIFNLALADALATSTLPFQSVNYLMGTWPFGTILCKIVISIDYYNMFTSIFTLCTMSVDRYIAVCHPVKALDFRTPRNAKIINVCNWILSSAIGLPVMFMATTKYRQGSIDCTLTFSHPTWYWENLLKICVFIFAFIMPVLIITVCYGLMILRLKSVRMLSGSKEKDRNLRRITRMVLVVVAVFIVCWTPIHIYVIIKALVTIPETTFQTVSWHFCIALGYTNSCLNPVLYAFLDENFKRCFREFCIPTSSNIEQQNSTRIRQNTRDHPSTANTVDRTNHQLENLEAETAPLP

rat = details: cited from earlier work
[2] = tested on: human segmental colectomy patients; assay: Phase 2 randomized, double-blind, placebo-controlled study of IV MNTX after segmental colectomy; type: in vivo
From the text: The following non-limiting examples relate to a phase 2 human study using MNTX to reduce the duration of gastrointestinal dysfunction following segmental colectomy. The primary objective of this study was to assess the activity of parenterally administered MNTX every six hours compared with placebo in shortening the duration of or preventing post-operative ileus in patients who have undergone segmental colectomies. Evidence of activity of MNTX was based on at least one or more of the following: the time to tolerance of liquids, time to first bowel movement, time to tolerance of solid foods, time to the combination of first solid meal and bowel movement, time to first micturition post foley catheter removal, and time to hospital discharge. The use of daily anti-emetic and opioid medication was also assessed.
A total of 65 patients at eight surgical centers participated in the phase 2 randomized, double-blind, placebo-controlled study. Subjects underwent segmental colectomies primarily due to cancer or diverticular disease. Shortly after surgery (90 minutes post surgery), study medication (0.3 mg/kg MNTX or placebo) was administered intravenously at six-hour intervals for a maximum of seven days.
The study was a double-blind, randomized parallel group study designed to evaluate the safety and activity of IV (intravenous) MNTX in the treatment of patients who are undergoing segmental colectomies via laparotomy and the duration of their post-operative ileus. Patients were randomized to either placebo (saline) or a fixed dose of IV MNTX of 0.30 mg/kg patient body weight in 50 cc of 0.9% normal saline hung as an IV piggyback (IVPB) to the main line and infused over twenty (20) minutes every six (6) hours until twenty-four (24) hours after the patient could tolerate solid foods, until discharged from the hospital, or for a maximum of seven (7) days. These time points for study drug discontinuation were selected in order to analyze the secondary efficacy endpoints of IV MNTX as well as the primary endpoints.
Day of Surgery. Within twenty-four (24) hours of surgery, patients were randomly assigned to either the MNTX 0.30 mg/kg or placebo (saline) dose group.
Prior to the first study drug administration the patient's vital signs were monitored. Patients were asked to assess their level of nausea, abdominal cramping, pain, and itching based on a verbal numerical scale. Within 90 minutes from the end of the surgical procedure, defined as the surgical end time recorded on the operating room (OR) sheet (regardless of whether a patient was in the PACU or not) the first dose of study drug was administered intravenously through an already existing IV line, hung as an IV piggyback (IVPB) to the main line, over 20 minutes. If the IV line was being used for other medications, i.e. antibiotics, electrolyte supplements, etc., the line was flushed with 20 cc of the main IV fluid prior to the hanging of study product. The patient's vital signs were monitored at the end of the study medication infusion, 20 min, 60 min, 120 min and 180 minutes after this first IV study drug administration. Patients were asked to assess their level of nausea, abdominal cramping, pain, and itching based on a verbal numerical scale and whether or not they had vomited 60 minutes after the end of the first study drug administration.
Inability to tolerate clear liquids was defined as nausea and/or vomiting within the first 60 minutes of the challenge.
The patient's diet was advanced to full liquids (≧500 cc of liquid) at the meal following the patient's tolerance of their first 30 cc of water by mouth. The patient's diet was then advanced to solid foods at the meal following their tolerance of full liquids. Tolerance of full liquids was defined as no clinically significant nausea and no vomiting within the first hour of the conclusion of the full liquids. […]

[3] = white crystalline powder as provided; cited from earlier work
[4] = segmental colectomy patients, MNTX 0.30 mg/kg IV every 6 hours, on average
[5] = segmental colectomy patients, on average
[6] = sigmoidectomy patients, MNTX IV after surgery, on average

| SMILES | Outcome of phase III human studies on post-operative gastrointestinal dysfunction end-points [1] | Affinity for mu opioid receptor, relative (mu opioid receptor) | Recovery of gastrointestinal transit (rat; MNTX intravenously 90 minutes before surgery) | Recovery of gastrointestinal transit (rat; MNTX intravenously closer to surgery (60 minutes or 45 minutes before surgery)) | Time to first bowel movement ([2]; segmental colectomy patients, MNTX 0.30 mg/kg IV every 6 hours started after surgery, on average) | Time to actual discharge [2, 4] | Time to discharge eligibility [2, 4] | Time to first flatus [2, 4] | Time to first full liquid diet [2, 4] | Time to first solid meal [2, 4] | Time to first solid meal and bowel movement (solids in-solids out) [2, 4] | Time to first use of an anti-emetic [2, 4] | Time to first anti-emetic use, delayed relative to absence of drug [2, 5] | Time to first flatus, accelerated relative to absence of drug [2, 5] | Time to first solid meal ([2]; sigmoidectomy patients, MNTX IV after surgery) | Time to actual discharge [2, 6] | Time to discharge eligibility [2, 6] | Time to first bowel movement [2, 6] | Time to first flatus [2, 6] | Solubility in water [3] |
| --- | --- | --- | --- | --- | --- | --- | --- | --- | --- | --- | --- | --- | --- | --- | --- | --- | --- | --- | --- | --- |
| C[C@H]1CN(C[C@H](Cc2ccccc2)C(=O)NCC(=O)O)CC[C@@]1(C)c1cccc(O)c1 [Alvimopan] | inconsistent results that lacked statistical significance for many of the end-points; also recorded: inconsistent and lack statistical significance with respect to many of the end-points | greater affinity and selectivity than methylnaltrexone |  |  |  |  |  |  |  |  |  |  |  |  |  |  |  |  |  |  |
| C[N+]1(CC2CC2)CC[C@]23c4c5ccc(O)c4O[C@H]2C(=O)CC[C@@]3(O)[C@H]1C5 (stereo partly drawn) [MNTX, N-cyclopropylmethylnoroxy-morphine-methobromide] |  | lower mu opioid receptor affinity than Alvimopan | signs of partial recovery of gastrointestinal transit | not | about 97 hours | about 140 hours | about 119 hours | about 88 hours | about 70 hours | about 100 hours | about 124 hours | about 26 hours | about 10 hours | about 8 hours | about 93 hours | ≤ 125 h | about 105 hours | about 94 hours | about 85 hours | freely soluble in water |
